We go through twelve compounds from patent publication US11724998B2, “PXR agonists and uses thereof for gut barrier dysfunction treatment and prevention” (Albert Einstein College of Medicine, priority 2017, dated 2023).

The target of data set [1] is T1, AhR (Homo sapiens, UniProt P35869).
T1 sequence (P35869 11-848): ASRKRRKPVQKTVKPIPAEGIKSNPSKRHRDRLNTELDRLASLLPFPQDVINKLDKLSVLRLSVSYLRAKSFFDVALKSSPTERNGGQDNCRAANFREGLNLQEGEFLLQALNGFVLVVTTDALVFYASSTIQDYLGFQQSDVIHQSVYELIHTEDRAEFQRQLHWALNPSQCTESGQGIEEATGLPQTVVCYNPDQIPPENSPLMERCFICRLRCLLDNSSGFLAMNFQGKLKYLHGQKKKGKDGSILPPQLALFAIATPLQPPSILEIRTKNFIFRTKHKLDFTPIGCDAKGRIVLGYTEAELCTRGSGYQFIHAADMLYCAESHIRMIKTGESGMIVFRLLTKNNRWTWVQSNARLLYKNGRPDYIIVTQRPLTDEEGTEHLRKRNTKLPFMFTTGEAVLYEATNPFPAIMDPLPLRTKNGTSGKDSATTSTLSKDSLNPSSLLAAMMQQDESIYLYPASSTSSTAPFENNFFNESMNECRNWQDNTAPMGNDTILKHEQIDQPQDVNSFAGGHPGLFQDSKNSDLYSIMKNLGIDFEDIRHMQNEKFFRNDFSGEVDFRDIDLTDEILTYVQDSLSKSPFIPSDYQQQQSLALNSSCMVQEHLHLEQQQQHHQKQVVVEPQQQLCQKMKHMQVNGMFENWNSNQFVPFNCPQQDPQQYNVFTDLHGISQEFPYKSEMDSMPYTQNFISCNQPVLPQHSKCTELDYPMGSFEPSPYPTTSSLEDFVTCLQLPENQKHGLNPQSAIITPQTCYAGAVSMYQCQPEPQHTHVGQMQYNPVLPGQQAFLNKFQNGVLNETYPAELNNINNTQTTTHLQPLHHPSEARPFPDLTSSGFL
Nature of the data set: AhR activation, AZ-AHR (stably co-transfected HepG2) reporter cells. Format: cell-based. Also noted: endogenous in cells; host or cells: AZ-AHR (HepG2). The conditions noted are these: to a much lesser extent than FKK 2 and 9; FIG. 6B. How it is done:
(§1) FIG. 6A-6E. Activation and inhibition studies with different FKK compounds. (A) PXR activation, LS180 cells (upper), and PXR inhibition, LS180 cells, co-incubation with RIF (lower). (B) AhR activation, AZ-AHR cells (upper), and AhR inhibition, AZ-AHR cells, co-incubation with TCDD (lower). (C) GR activation, AZ-GR cells (upper), and VDR activation, IZ-VDRE cells (lower). (D) TR activation, PZ-GR cells (upper), and AR activation, AIZ-AR cells (lower). (E) Displacement of radiolabeled 9-cis-retinoic acid (RA) by FKK compounds.
(§2) All the synthesized compounds and intermediates were tested for their potential to activate PXR and/or AhR via luciferase assays. The PXR activation assays were performed by co-transfecting full-length expressing human PXR plasmid (91) and p3A4 luciferase reporter (92) in LS180 or Caco-2 cells. AhR activation conducted using stably co-transfected HepG2 reporter cells as previously described (93). […] With the exception of FKK6, there was no significant inhibition of TCDD-induced AhR activation. […] Independent verification of AhR activity of randomly selected compounds—FKK 5, 6 and 9—was performed in a separate laboratory (GHP). Nuclear receptor selectivity was assessed for FKK compounds for GR, ADR, TR and AR using cell-based luciferase assays previously described (93-102). There was no observed biologically significant (>2-fold) induction of nuclear receptor activity (FIG. 6C). RXR ligand displacement is only significant for FKK1 and FKK8 (FIG. 6D).

Data set [2] concerns AhR target genes (CYP1A1 and CYP1A2). It counts as cell-based, human. An excerpt:
(§3) FIG. 2A-2F. […] Histogram, mean±SD.

Data set [3] has the same test system. Briefly: AhR target gene mRNA expression in HepaRG cells (control, AhR-KO).
In data set [4] the target is T1, AhR. Nature of the data set: AhR activation by IPA (assay not described). It counts as cell-based. The source says: IPA/Indoles can have weak (˜2 fold) but important effects on the activation of other nuclear receptors (e.g., CAR, LXR) (33). […] Some receptors, specifically CAR and LXR, can act to induce liver steatosis (79, 83-86) and hepatocarcinogenesis (CAR) (80, 84, 87-89) and thus, avoiding excessive activation of these nuclear receptors in the context of PXR activation would be important. […] CDK5 (along with CDK2) are important kinases that phosphorylate and inhibit PXR activation (90).

A further data set concerns AhR target gene (CYP1A1). It counts as cell-based, human.
Description: as §3
FIG. 7A-7B. Effects of FKK compounds on CYP3A4, MDR1 and CYP1A1 gene expression in LS180 cells. (A) mRNA expression. (B) mRNA expression in wt-PXR transfected cells.

Data set [5] deals with T2, PXR (Homo sapiens, UniProt O75469).
T2 sequence (O75469 1-434): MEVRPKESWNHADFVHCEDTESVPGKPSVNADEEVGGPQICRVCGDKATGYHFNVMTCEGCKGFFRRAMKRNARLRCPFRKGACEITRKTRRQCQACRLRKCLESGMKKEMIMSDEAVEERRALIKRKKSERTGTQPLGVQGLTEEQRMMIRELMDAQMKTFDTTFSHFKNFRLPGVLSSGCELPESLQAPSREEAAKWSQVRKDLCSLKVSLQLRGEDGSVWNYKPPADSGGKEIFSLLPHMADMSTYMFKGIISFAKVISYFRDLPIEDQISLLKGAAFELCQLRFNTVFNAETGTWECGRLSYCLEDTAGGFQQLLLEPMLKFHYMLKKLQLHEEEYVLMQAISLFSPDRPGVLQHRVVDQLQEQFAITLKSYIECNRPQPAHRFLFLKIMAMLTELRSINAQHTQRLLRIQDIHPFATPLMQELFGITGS
Briefly: PXR activation, HepG2 reporter assay. The arrangement: host or cells: HepG2. Format: cell-based. An excerpt: (§4) Two molecules that were readily available (Ryan Scientific: FKK999 & BAS451) were purchased and tested in vitro for PXR activation using a HepG2 reporter assay. […] […]. […] In general, reporter cell lines are efficient ways to screen for PXR ligands (72). In the LS180 intestinal cell line, the PXR activation assay involves a transient transfection system using a specific PXR plasmid and reporter plasmid (CVmax % 11.2+2; CVmid % 10.8+0.1.4; Signal Window 6.2+1.1; Z′ factor 0.51+0.005).
In general terms: In a reporter assay the amount or activity of a reporter protein is the signal.

Data set [6] relates to PXR target genes (CYP3A4, MDR1).
For data set [7] the test system is unchanged. The conditions noted are these: human, 24 h, 10 μM.
Data set [8] deals with T1, AhR. Nature of the data set: AhR inhibition, AZ-AHR cells, co-incubation with TCDD. It counts as cell-based. The arrangement: endogenous in cells; host or cells: AZ-AHR (HepG2). The conditions noted are these: read-out: inhibition of maximal induction by TCDD. The method, then: as §1
as §2, with “There was no observed biologically significant (>2-fold) induction of nuclear receptor activity (FIG. 6C). RXR ligand displacement is only significant for FKK1 and FKK8 (FIG. 6D).” left out

In data set [9] the target is T2, PXR. Nature of the data set: Isothermic titration calorimetry (ITC). Format: binding. The conditions noted are these: FIG. 11.
Data set [10] has as its target T2, PXR. Nature of the data set: PXR activation (transactivation) luciferase assay in LS180 cells. Format: cell-based. The arrangement: co-transfecting full-length expressing human PXR plasmid (91) and p3A4 luciferase reporter (92) in LS180 or Caco-2 cells; expressed in transfected cells; host or cells: LS180. The method, then:
as §1, §4, §2

In the next data set the test system is 468 kinases. Briefly: Kinase profiling, scanMAX (KINOMEscan) panel. Format: binding. The settings on record: 10 μM; for Number of Hits: 403 non-mutant kinases. The method, then: The kinase inhibition assays were conducted by DiscoverX on a platform assay by Ambit BioSciences as described previously (112, 113). FKK6 was screened at a single concentration of 10 μM in duplicate. The scanMAXSM assay panel measures 468 kinases (WorldWideWeb.discoverx.com/services/drug-discovery-development-services/kinase-profiling/kinomescan/scanmax). The assays measures a compound's ability to inhibit binding of a canonical ligand substrate, with 0% activity of control corresponding to full inhibition and 100% activity of control to no inhibition. […] Three different activity cut-offs were analyzed—S(35) or % activity of control <35; S(10) or % activity of control <10; and S(1) or % activity of control <1. To illustrate effect or lack of effect, an image of the entire family of kinases tested were grouped by families and S(35). The TREEspot Kinase dendrogram image was generated using TREEspot™ Software Tool and reprinted with permission from KINOMEscan®, a division of DiscoveRx Corporation, © DISCOVERX CORPORATION 2010.

Data set [11] has as its system PXR occupancy of the target promoters. Nature of the data set: Chromatin immunoprecipitation assay (ChIP). It counts as cell-based. The settings on record: semi-quantitative PCR. How it is done:
These assays were performed as previously published (27).

The subject of data set [12] is PXR target genes (CYP3A4, MDR1). Nature of the data set: PXR target gene mRNA expression in plated human hepatocytes. The settings on record: 10 μM, 24 h, FIG. 2.
In another data set the test system is RXR. Briefly: RXR ligand displacement (radiolabeled 9-cis-retinoic acid). It counts as binding. The conditions noted are these: displacement of radiolabeled 9-cis-retinoic acid. How it is done:
as §1
as §2, with “There was no observed biologically significant (>2-fold) induction of nuclear receptor activity (FIG. 6C). RXR ligand displacement is only significant for FKK1 and FKK8 (FIG. 6D).” left out

SMILES strings stand for the structures. Where “and” joins values, the source holds several entries; their conditions need not be identical. Equal entries are not always repeated. Where two headings read alike, the source gives them in different places. A value given as a limit tells only on which side of the number the result lay.

As for `CC#CC(O)(c1ccncc1)c1cc2ccccc2n1COCC` (stereo not shown) [FKK4], the AhR activation profile result at AhR [1] was “variable degrees of dose-dependent AhR activation”.

For the compound `CC#CC(O)(c1ccncc1)c1cc2ccccc2n1S(=O)(=O)c1ccccc1` (stereo not shown) [FKK3], the AhR activation profile entry on AhR [1] is reported as “variable degrees of dose-dependent AhR activation”.

`O=S(=O)(c1ccccc1)n1c(C(O)(Cc2cc3ccccc3[nH]2)c2ccncc2)cc2ccccc21` (stereo not shown) [FKK7]: at AhR [1], the AhR activation profile result is given as “variable degrees of dose-dependent AhR activation”.

Turning to `OC(c1ccncc1)(c1cc2ccccc2[nH]1)c1cc2ccccc2[nH]1` [FKK2], the “induction of CYP1A1 and CYP1A2” value in data set [2] (human, hepatocytes) is greater than 100 fold; in [3], “completely diminished”.

`O=C(O)CCc1c[nH]c2ccccc12` [IPA, indole-3-propionic acid, reference compound]: the AhR activation entry on AhR [4] is on record as “does not activate AhR”.

On to `CCOCn1c(C(O)(Cc2cc3ccccc3[nH]2)c2ccncc2)cc2ccccc21` (stereo not shown) [FKK9], for which the “induction of CYP1A1 and CYP1A2” value in data set [2] (human, hepatocytes) was greater than 100 fold; in data set [3], “completely diminished”.

What is called EC50 is the concentration giving half of the maximal effect. Regarding `Cc1[nH]c2ccccc2c1C(c1c(C)[nH]c2ccccc12)c1c(C)[nH]c2ccccc12` [FKK999, reference compound], in the data set on AhR target gene (CYP1A1), the “CYP1A1 mRNA expression” value is reported as “attenuated effects” and the “CYP1A1 mRNA induction” value was “attenuated effects”. The EC50 at PXR [5] (HepG2 reporter assay, read-out: EC50, PXR activation) was 5 µM. Further, the AhR activation profile result on AhR [1] is recorded as “variable degrees of dose-dependent AhR activation”. For the same compound, the “CYP3A4 mRNA expression” value in data set [6] is “expression is reduced”. Moreover, the “CYP3A4 mRNA induction” value in [6] (human) is on record as greater than 2 fold.

With `Cc1[nH]c2ccccc2c1C(c1ccccc1)c1c(C)[nH]c2ccccc12` [BAS451], the EC50 on PXR [5] was greater than 50 µM.

Broadly, the inhibition is the change of the read-out against control, counted positive when it falls. `C#CCC(O)(c1ccncc1)c1cc2ccccc2n1S(=O)(=O)c1ccccc1` (stereo not shown) [FKK6]: the CYP3A4 induction in data set [7] is given as roughly 10 fold; in data set [12], roughly 2.6 fold. For the same compound, the values for the MDR1 induction in [7] and in data set [12] were greater than 6 fold and roughly 1.5 fold, respectively. The inhibition at 10 µM on AhR [8] was roughly 25%. At PXR [9], the “binding to human PXR” value was “efficient and direct binding”. At PXR [10], this compound came in with an EC50 of 0.88 µM. Also, on PXR [10] (read-out: Emax/Emax[rifampicin, positive control]), the Emax came to 117%. Moreover, in the data set on 468 kinases (duplicate), the “S(1-35)-scores” value was 0. Further, in the data set on 468 kinases (468 kinases), the “inhibitory effects on kinases” value was “lack of inhibitory effects of FKK6 on any kinase”. The “Number of Hits” value is 0 in the data set on 468 kinases (S(1), % activity of control <1); 0 in the data set with 468 kinases (S(10), % activity of control <10); 0 with 468 kinases (S(35), % activity of control <35). For the same compound, the “PXR occupancy of the target promoters” value in [11] is “efficiently induces PXR occupancy”.

For `Clc1cc2c(cc1Cl)Oc1cc(Cl)c(Cl)cc1O2` [TCDD], the “induction of CYP1A1 and CYP1A2” value in [2] (primary human hepatocytes, FKK2 and FKK9 in 1 of 4 hepatocytes) is listed as greater than 5000 fold. In addition, the “CYP1A1 mRNA induction” value in the data set with AhR target gene (CYP1A1) (PXR transfected LS180 cells, FIG. 7B) came out at 1299.1 fold. Also, the “CYP1A1 mRNA expression” value with AhR target gene (CYP1A1) (un-transfected LS180 cells, FIG. 7A) was 2347 fold and < 3000 fold.

In the case of `OC(Cc1cc2ccccc2[nH]1)(c1ccncc1)c1cc2ccccc2[nH]1` (stereo not shown) [FKK10], the AhR activation profile result at AhR [1] is on record as “variable degrees of dose-dependent AhR activation”.

For `O=S(=O)(c1ccccc1)n1c(C(O)c2ccncc2)cc2ccccc21` (stereo not shown) [FKK1], in the data set on AhR target gene (CYP1A1), the “CYP1A1 mRNA expression” value is listed as “attenuated effects” and the “CYP1A1 mRNA induction” value was “attenuated effects”. Also, the “CYP3A4 mRNA expression” value in data set [6] is “expression is reduced”. In addition, in the data set on RXR, the RXR ligand displacement entry is “significant”.
